Assay type in all cases: functional
For assay [1], the system named is Staphylococcus aureus. The experiment in a line: Potentiation of imipenem-induced activity antibacterial against methicillin-resistance Staphylococcus aureus MB5393 in presence of 1 ug/ml imipenem by broth dilution method. (In general: Broth dilution looks for growth in wells or tubes with falling amounts of substance.)
Assay [2] concerns Staphylococcus aureus. The experiment in a line: Antibacterial against methicillin-resistance Staphylococcus aureus MB5393 by broth dilution method.
In assay [3] the test system is Staphylococcus aureus. The experiment in a line: Potentiation of imipenem-induced activity antibacterial against methicillin-resistance Staphylococcus aureus MB5393 in presence of 2 ug/ml imipenem by broth dilution method.
Assay [4] concerns Staphylococcus aureus. The experiment in a line: Potentiation of imipenem-induced activity antibacterial against methicillin-resistance Staphylococcus aureus MB5393 in presence of 4 ug/ml imipenem by broth dilution method.

≈ marks a conversion by molar mass, not a printed value.

As to `CC(C)=CCc1cccc2[nH]cc(C[C@@H]3NC(=O)[C@H](Cc4c[nH]c5ccccc45)NC(=O)[C@@H]4CCCN4C(=O)[C@@H](CS(=O)(=O)O)NC(=O)[C@@H](NC(=O)[C@@H](NC(=O)[C@H](C)NC(=O)CC(=O)O)C(C)C)COC(=O)[C@H](CO)NC(=O)[C@@H](CC(C)C)NC(=O)[C@@H](C(C)C)NC3=O)c12`, the minimum inhibitory concentration (MIC) (usually the smallest concentration in the dilution series that meets the test's criterion for growth inhibition) is 16 µg/mL in the assay on Staphylococcus aureus [1], > 128 µg/mL in the assay with Staphylococcus aureus [2], 16 µg/mL in the assay on Staphylococcus aureus [3] and 8 µg/mL in the assay with Staphylococcus aureus [4].
`CC(C)=CCc1cccc2[nH]cc(C[C@@H]3NC(=O)[C@H](Cc4c[nH]c5c(Cl)cccc45)NC(=O)[C@@H]4CCCN4C(=O)[C@@H](CS(=O)(=O)O)NC(=O)[C@@H](NC(=O)[C@@H](NC(=O)[C@H](C)NC(=O)CC(=O)O)C(C)C)COC(=O)[C@H](CO)NC(=O)[C@@H](CC(C)C)NC(=O)[C@@H](C(C)C)NC3=O)c12`: the minimum inhibitory concentration (MIC) is 4 µg/mL in the assay with Staphylococcus aureus [1], > 128 µg/mL with Staphylococcus aureus [2], 4 µg/mL in the assay with Staphylococcus aureus [3] and 2 µg/mL in the assay with Staphylococcus aureus [4].
`CC(C)=CCc1ccc(Cl)c2[nH]cc(C[C@@H]3NC(=O)[C@H](Cc4c[nH]c5c(Cl)cccc45)NC(=O)[C@@H]4CCCN4C(=O)[C@@H](CS(=O)(=O)O)NC(=O)[C@@H](NC(=O)[C@@H](NC(=O)[C@H](C)NC(=O)CC(=O)O)C(C)C)COC(=O)[C@H](CO)NC(=O)[C@@H](CC(C)C)NC(=O)[C@@H](C(C)C)NC3=O)c12`: the MIC came out at 0.5 µg/mL with Staphylococcus aureus [1], 16 µg/mL (≈ 11.4 µM) in the assay with Staphylococcus aureus [2], 0.5 µg/mL with Staphylococcus aureus [3] and 0.25 µg/mL with Staphylococcus aureus [4].
With `C[C@@H](O)[C@H]1C(=O)N2C(C(=O)O)=C(SCCNC=N)C[C@H]12` [IMIPENEM ANHYDROUS], in the assay on Staphylococcus aureus [2], the MIC is 16 µg/mL (≈ 53.4 µM).
